Measured values as given in patent US5660992A, “Sialic acid/fucose based assay reagents and assay methods” (Glycomed Incorporated, priority 1995, dated 1997).

Tests used:
[1] = system: neutrophil migration to the peritoneal cavity; test: Murine thioglycollate induced peritonitis model; format: in vivo, mice; details: FIG. 7; for inhibition of neutrophil migration into the peritoneum: female Swiss Webster mice, compound in tail vein, thioglycollate i.p., cells counted after three hours
Protocol: Mice were injected with saline alone (sal/-), thioglycollate and phosphate buffered saline (TG/PBS) or thioglycollate and GM 1221 or GM 1398 (TG/GM 1221 or TG/1398), and the number of neutrophils in the peritoneal cavity measured.
The efficaciousness of GM 1221, and GM 1398 was shown using a murine thioglycollate induced peritonitis model. The assay. materials and methods are known in the art, or are generally described by Lewinsohn, D. et al., J. Immun., 138:4313-4321 (1987), or Watson, S. et.al., Nature 349:164-166 (1991).
This assay measures the ability of the compounds to inhibit neutrophil migation to the peritoneal cavity, the migration being initiated by the presence of thioglycollate in the peritoneal cavity. Thioglycollate is a known and effective inflammatory agent that causes neutrophil migration into the mouse peritoneum when it is administered intraperitoneally. Lewinsohn, D. et al., J. Immun. (1987) 138:4313-4321.
Briefly, female Swiss Webster mice weighing about 25 grams were injected in the tail vein with 200 ul of phosphate buffered saline (PBS) with or without the appropriate compound. The pH of the solutions was adjusted to neutrality by the addition of either NaOH or HCL and sterilized by filtration through a 0.2 u filter.
Immediately following injection with the appropriate compound or PBS, the mice were injected intraperitoneally with 1 ml of thioglycollate medium prepared as described by the manufacturer, BBL. Three hours following injection of the thioglycollate solution the mice were sacrificed by CO2 asphyxiation, and the number of cells in the peritoneum removed by lavage with 5 ml of heparinized (5 U/ml) 0.9% sodium chloride solution containing 0.1% bovine serum albumin. Cell number was determined using a Coulter Counter. The cells were prepared for counting by diluting the lavage fluid with 1:50 of a commercial physiological isotonic solution, Isoton II, and the cells-lysed by adding S/P Lysing and Hemoglobin Reagent (1:100 final dilution). Cell nuclei were counted in a sized window with lower and upper limits set at 3.9 and 5.7 um, respectively.

L-selectin IgG chimera = molecular target: T1, L-selectin IgG chimera (Homo sapiens, UniProt P14151); test: ELISA: blocking of L-selectin IgG chimera binding to 2,3sLex glycolipid; details: FIG. 5 and FIG. 6; several concentrations
T1 sequence (P14151 39-332 limits assumed): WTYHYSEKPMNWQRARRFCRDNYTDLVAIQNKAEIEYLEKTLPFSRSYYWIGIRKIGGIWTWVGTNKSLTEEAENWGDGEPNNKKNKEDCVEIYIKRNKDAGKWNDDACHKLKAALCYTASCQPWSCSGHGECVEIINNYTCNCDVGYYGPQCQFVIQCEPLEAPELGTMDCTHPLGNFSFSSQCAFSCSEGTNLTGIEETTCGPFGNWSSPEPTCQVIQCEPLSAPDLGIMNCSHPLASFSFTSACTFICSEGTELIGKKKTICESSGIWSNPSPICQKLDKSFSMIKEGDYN
Excerpt: FIG. 5 is a graph showing the results of Elisa assays carried out to determine the ability of three different compounds to block the binding of 2,3,sialyl-Le^x to L-selectin IgG chimera. The compounds tested were GM 1222, GM 1279 and GM 1398. The results are expressed as per cent of control binding.
FIG. 6 is a graph showing the results of Elisa assays carried out to determine the ability of GM 1221 to block the binding of 2,3,sialyl-Le^x to L-selectin IgG chimera. The results are expressed as per cent of control binding.
An ELISA assay was employed that uses recombinant fusion proteins composed of extracellular portions of the human selectins joined to human immunoglobulin heavy chain CH3, CH2, and hinge regions. See, for example, Walz et al., Science (1990) 250:1132; Aruffo et al., Cell (1991) 67:35; Aruffo et al., Proc. Natl. Acad. Sci. USA (1992) 89:2292. […]
The positive control is the signal produced by the soluble receptor when it is allowed to react with 2,3sLex glycolipid in the microtiter wells in the absence of any inhibitor. […] The signal produced by the receptor that had been previously treated with an inhibitor (recorded as O.D.), was divided by the signal produced by the positive control and multiplied by 100 to calculate the % receptor bound to the well, or as expressed in the figures, the per cent of control binding. […]

SMILES | inhibition of neutrophil migration into the peritoneum [1] | inhibition of L-selectin binding to 2,3sLex glycolipid (per cent of control binding) (L-selectin IgG chimera) | additional inhibition of neutrophil migration relative to GM 1221 ([1]; same mouse peritonitis model, comparison with GM 1221)
CC(OCCCCCCOC1O[C@@H](C)[C@@H](O)[C@@H](O)[C@@H]1O)C(=O)O (stereo partly shown) [GM 1221] | inhibit neutrophil migration into the peritoneum | inhibits L-selectin binding | 
CC(=O)N[C@H]1[C@H]([C@H](O)[C@H](O)CO)O[C@@](OCCCCCCO[C@@H]2O[C@@H](C)[C@@H](O)[C@@H](O)[C@@H]2O)(C(=O)O)C[C@@H]1O [GM 1398, 1-O-α-Neu5Ac-(6-O-α-L-Fucopyranosyl)-Hexane] | inhibit neutrophil migration into the peritoneum |  | about 30%
